According to patent US11851391B2, “Antifungal compounds and methods of forming the same” (University of Kentucky Research Foundation, priority 2018, dated 2023):
Converted amounts (≈) assume the structure as drawn. “Also recorded” adds a separate entry of the source. Read-outs that look alike come from different tables or passages of the source.

Columns and labels:
[1] = Solubility of the compounds; type: physicochemical
[2] = test system: Candida albicans ATCC 10231(R) (strain A); assay: MIC determination, in vitro antifungal assay (CLSI M27-A3); type: cell-based; conditions: MIC-0 (no visible growth), 48 h at 35° C.
Method: (§1) The activity of N,N′-diaryl-bishydrazones 7-22 was tested against a panel of seven strains of C. albicans: ATCC 10231(R) (A), ATCC 64124(R) (B), ATCC MYA-2876(S) (C), ATCC 90819(R) (D), ATCC MYA-2310(S) (E), ATCC MYA-1237(R) (F), and ATCC MYA-1003(R) (G). The activity of these bishydrazones 7-22 was also explored against a panel of three non-albicans Candida strains: C. glabrata ATCC 2001 (H), C. krusei ATCC 6258 (I), and C. parapsilosis ATCC 22019 (J). Finally, the activity of these bishydrazones 7-22 was explored against three Aspergillus strains: A. flavus ATCC MYA-3631 (K), A. nidulans ATCC 38163 (L), and A. terreus ATCC MYA-3633 (M).
(§2) Candida albicans ATCC 10231 (A), C. albicans ATCC 64124 (B), and C. albicans ATCC MYA-2876 (C) were kindly provided by Dr. Jon Y. Takemoto (Utah State University, Logan, UT, USA). C. albicans ATCC 90819 (D), C. albicans ATCC MYA-2310 (E), C. albicans ATCC MYA-1237 (F), C. albicans ATCC MYA-1003 (G), Candida glabrata ATCC 2001 (H), Candida krusei ATCC 6258 (I), Candida parapsilosis ATCC 22019 (J), Aspergillus flavus ATCC MYA-3631 (K), and Aspergillus terreus ATCC MYA-3633 (M) were obtained from the American Type Culture Collection (ATCC; Manassas, VA, USA). Aspergillus nidulans ATCC 38163 (L) was received from Dr. Jon S. Thorson (University of Kentucky, Lexington, KY, USA). Filamentous fungi and yeasts were cultivated at 35° C. in RPMI 1640 medium (with 1-glutamine, without sodium biocarbonate, Sigma-Aldrich, St. Louis, MO) buffered to a pH of 7.0 with 0.165 M morpholinepropanesulfonic acid (MOPS) buffer (Sigma-Aldrich).
(§3) The MIC values of compounds 7a-24c against yeast cells (strains A-J) were determined in 96-well plates as described in the CLSI document M27-A3 with minor modifications. A single colony of freshly prepared yeast cells was used to inoculate 5 mL of yeast extract peptone dextrose (YPD) broth prior to incubation overnight with shaking at 200 rpm at 35° C. From the actively growing yeast culture, 100 μL were then transferred to 900 μL of sterile ddH2O and re-adjusted to achieve OD600 of 0.12 (˜1×10^6 CFU/mL). The cell suspension was further diluted to achieve 2-4×10^3 CFU/mL in RPMI 1640 medium. […] The final concentration of DMSO was ensured to be <1.25% in all experiments. The MIC values for compounds 7a-24c and CAS were defined as the minimum drug concentration that yielded complete inhibition (also known as MIC-0).

[3] = test system: Candida parapsilosis ATCC 22019 (strain J); assay: as above; type: cell-based; conditions: strain J, MIC-0, 48 h at 35° C.
Method: as §1, §2, §3

[4] = test system: Candida glabrata ATCC 2001 (strain H); assay: as above; type: cell-based; conditions: Nakaseomyces glabratus, ATCC2001, 48 h, MIC-0, 48 h at 35° C., read-out: MIC
Method: as §1, §2
(§4) A single colony of freshly prepared yeast cells was used to inoculate 5 mL of yeast extract peptone dextrose (YPD) broth prior to incubation overnight with shaking at 200 rpm at 35° C. From the actively growing yeast culture, 100 μL were then transferred to 900 μL of sterile ddH2O and re-adjusted to achieve OD600 of 0.12 (˜1×10^6 CFU/mL). The cell suspension was further diluted to achieve 2-4×10^3 CFU/mL in RPMI 1640 medium. […] The final concentration of DMSO was ensured to be <1.25% in all experiments.

[5] = test system: Candida krusei ATCC 6258 (strain I); assay: as above; type: cell-based; conditions: Pichia kudriavzevii, ATCC6258, 48 h, MIC-0, 48 h at 35° C., read-out: MIC
Method: as §1, §2, §4

[6] = test system: C. albicans ATCC MYA-2310(S) (strain E); assay: as above; type: cell-based, Candida albicans; conditions: Candida albicans, 48 h, MIC-0, 48 h at 35° C., read-out: MIC
Method: as §1, §2, §3

[7] = test system: C. albicans ATCC 90819(R) (strain D); assay: as above; type: cell-based, Candida albicans; conditions: Candida albicans, ATCC90819, 48 h, MIC-0, 48 h at 35° C., read-out: MIC
Method: as §1, §2, §3

[8] = test system: C. albicans ATCC 64124(R) (strain B); assay: as above; type: cell-based, Candida albicans; conditions: strain B, MIC-0, 48 h at 35° C.
Method: as §1, §2, §3

[9] = test system: C. albicans ATCC MYA-1237(R) (strain F); assay: as above; type: cell-based, Candida albicans; conditions: Candida albicans, 48 h, MIC-0, 48 h at 35° C., read-out: MIC
Method: as §1, §2, §3

[10] = test system: Aspergillus nidulans ATCC 38163 (strain L); assay: MIC determination against filamentous fungi (CLSI M38-A2); type: cell-based; conditions: Aspergillus nidulans, ATCC38163, 48 h, MIC-0, 48 h at 35° C., read-out: MIC
Method: as §1, §2
(§5) Similarly, the MIC values of compounds 7a-24c, as well as that of the two control drugs against filamentous fungi (strains K-M) were determined as previously described in CLSI document M38-A2. Spores were harvested from sporulating cultures growing on potato dextrose agar (PDA) by filtration through sterile glass wool and enumerated by using a hemocytometer to obtain the desired inoculum size. […] Spore suspensions were added to the wells to afford a final concentration of 5×10^5 CFU/mL. The plates were incubated at 35° C. for 48 h. The MIC values of compounds 7a-24c and CAS against filamentous fungi were based on the complete inhibition of growth when compared to the growth control (MIC-0). […] Each test was performed in triplicate.

[11] = test system: Aspergillus terreus ATCC MYA-3633 (strain M); assay: as above; type: cell-based; conditions: Aspergillus terreus, 48 h, MIC-0, 48 h at 35° C., read-out: MIC
Method: as §1, §2, §5

[12] = test system: Aspergillus flavus ATCC MYA-3631 (strain K); assay: as above; type: cell-based; conditions: Aspergillus flavus, 48 h, MIC-0, 48 h at 35° C., read-out: MIC
Method: as §1, §2, §5

[13] = test system: various yeast strains and filamentous fungi (strains A-M); assay: Antifungal activity over the whole panel (summary of MIC data); type: cell-based, Candida and Aspergillus strains; conditions: over the fungal strains tested, based on MIC data of Table 1
Method: as §1, §3, §5

[14] = test system: C. albicans ATCC MYA-1003(R) (strain G); assay: MIC determination, in vitro antifungal assay (CLSI M27-A3); type: cell-based, Candida albicans; conditions: MIC-0, 48 h at 35° C.
Method: as §1, §2, §4

[15] = test system: C. albicans ATCC MYA-2876(S) (strain C); assay: as above; type: cell-based, Candida albicans; conditions: Candida albicans, 48 h, MIC-0, 48 h at 35° C., read-out: MIC
Method: as §1, §2, §4

[16] = Candida albicans, ATCC10231, 48 h, read-out: MIC
[17] = Lodderomyces parapsilosis, ATCC22019, 48 h, read-out: MIC
[18] = Candida albicans, ATCC64124, 48 h, read-out: MIC
[19] = Candida albicans, 48 h, read-out: MIC

Compound | MIC [2, 16] [µg/mL] | MIC [3, 17] [µg/mL] | MIC [3] [µg/mL] | MIC [4] [µg/mL] | MIC [5] [µg/mL] | MIC [6] [µg/mL] | MIC [7] [µg/mL] | MIC [8, 18] [µg/mL] | MIC [9] [µg/mL] | MIC [10] [µg/mL] | MIC [11] [µg/mL] | MIC [12] [µg/mL] | MIC [14, 19] [µg/mL] | MIC [14] [µg/mL] | MIC [15] [µg/mL] | MIC [2] [µg/mL] | MIC [8] [µg/mL] | solubility (in words) [1] | antifungal activity (in words) [13]
COc1cccc(N/N=C/c2ccc(-c3ccc(/C=N/Nc4cccc(OC)c4)cc3)cc2)c1 [Compound 11b] |  |  |  |  |  |  |  |  |  |  |  |  |  |  |  |  |  | limited solubility; also recorded: insoluble | 
FC(F)(F)c1ccc(N/N=C/c2ccc(-c3cccc(/C=N/Nc4ccc(C(F)(F)F)cc4)c3)cc2)cc1 [Compound 14a] |  |  |  |  |  |  |  |  |  |  |  |  |  |  |  |  |  | limited solubility; also recorded: insoluble | 
O=[N+]([O-])c1ccccc1N/N=C/c1ccc(-c2ccc(/C=N/Nc3ccccc3[N+](=O)[O-])cc2)cc1 [Compound 8b] |  |  |  |  |  |  |  |  |  |  |  |  |  |  |  |  |  | limited solubility; also recorded: insoluble | 
Fc1cc(F)cc(N/N=C/c2ccc(-c3cccc(/C=N/Nc4cc(F)cc(F)c4)c3)cc2)c1 [Compound 22a] | 3.9 (≈ 8.43 µM) | > 31.3 |  | > 31.3 | > 31.3 | > 31.3 | > 31.3 | 15.6 (≈ 33.7 µM) | 31.3 (≈ 67.7 µM) | > 31.3 | > 31.3 | > 31.3 | 31.3 (≈ 67.7 µM) |  | 31.3 (≈ 67.7 µM) | 3.9 (≈ 8.43 µM) | 15.6 (≈ 33.7 µM) |  | no activity

Now from value to compound, other results behind:

MIC [2, 16] [µg/mL] | MIC [3, 17] [µg/mL] | MIC [3] [µg/mL] | MIC [4] [µg/mL] | MIC [5] [µg/mL] | MIC [6] [µg/mL] | MIC [7] [µg/mL] | MIC [8, 18] [µg/mL] | MIC [9] [µg/mL] | MIC [10] [µg/mL] | MIC [11] [µg/mL] | MIC [12] [µg/mL] | MIC [14, 19] [µg/mL] | MIC [14] [µg/mL] | MIC [15] [µg/mL] | MIC [2] [µg/mL] | MIC [8] [µg/mL] | Compound | solubility (in words) [1] | antifungal activity (in words) [13]
7.8 (≈ 17 µM) | 1.95 to 3.9 (≈ 4.24 to 8.49 µM) | 3.9 (≈ 8.49 µM) | 15.6 (≈ 34 µM) | 31.3 (≈ 68.1 µM) | 31.3 (≈ 68.1 µM) | 15.6 (≈ 34 µM) | 7.8 (≈ 17 µM) | 15.6 (≈ 34 µM) | > 31.3 | > 31.3 | > 31.3 | 1.95 to 3.9 (≈ 4.24 to 8.49 µM) | 3.9 (≈ 8.49 µM) | 15.6 (≈ 34 µM) |  |  | Clc1ccc(N/N=C/c2ccc(-c3cccc(/C=N/Nc4ccc(Cl)cc4)c3)cc2)cc1 [Compound 18a] |  | overall antifungal activity against all the strains tested; also recorded: good activity against the majority of the fungal strains tested; also recorded: excellent activity only against yeast strains
> 31.3 | > 31.3 |  | > 31.3 | > 31.3 | > 31.3 | > 31.3 | > 31.3 | > 31.3 | > 31.3 | 31.3 (≈ 71.1 µM) | > 31.3 | 31.3 (≈ 71.1 µM) |  | > 31.3 |  |  | N#Cc1ccc(N/N=C/c2ccc(-c3ccc(/C=N/Nc4ccc(C#N)cc4)cc3)cc2)cc1 [Compound 13b] |  | inactive
